In patent US11952611B2, “Methods and systems for detection of antibiotic resistance” (Laboratory Corporation of America Holdings, priority 2017, dated 2024):
Like-named read-outs stand apart in the source and are kept apart here.

Assays:
MSSA = experiment: Recombinant phage luciferase assay, oxacillin vs cefoxitin (Table 1), MSSA strains; assay type: cell-based, Staphylococcus aureus
Method: (§1) Bacterial strains were serially diluted to approximately 1×10^3 CFU/mL and transferred to a 96-well plate at 135 μL per well. 15 μL of oxacillin or cefoxitin were added to the wells to reach a final concentration of 1.0 μg/mL or 2.0 μg/mL of oxicillin or 2.0 μg/mL, 4.0 μg/mL, 8.0 μg/mL, or 10.0 μg/mL of cefoxitin. The plate was then sealed and incubated at 37° C. for 2 hours. 10 μL of recombinant phage (1.6×10^8 pfu/mL) was added to each well. The plate was then re-sealed and incubated at 37° C. for 2 hours. A master mix was made containing 15 μL 5× lysis buffer, 50 μL luciferase assay buffer, and 1 μL luciferase substrate per well. 65 μL of master mix was added to each well. Luminescence from the reactions was read on a GLOMAX® Navigator and relative luminal units (RLU) for each reaction were analyzed. RLU values three times greater than an established background RLU level for LB (>750 RLU) were considered positive. The results, shown in Table 1, indicate that the recombinant phage are capable of detecting the tested bacterial strains.

MRSA = experiment: Recombinant phage luciferase assay, oxacillin vs cefoxitin (Table 1), MRSA strains; assay type: cell-based, Staphylococcus aureus
Method: as §1

E. coli O157:H7 = assay type: cell-based; details: for signal reduction as compared to controls: 30 min antibiotic then 120 min phage
[1] = strain 12600 MSSA, detected CFU 389
[2] = strain AR0484 MSSA, detected CFU 153
[3] = strain AR0488 MSSA, detected CFU 285
[4] = strain AR0491 MSSA, detected CFU 300
[5] = strain AR0463 MRSA, detected CFU 419
[6] = strain AR0465 MRSA, detected CFU 111
[7] = strain AR0472 MRSA, detected CFU 190
[8] = strain AR0476 MRSA, detected CFU 194
[9] = strain AR0481 MRSA, detected CFU 43
[10] = strain BAA-1720 MRSA, detected CFU 201

**Q.** What does the source list for `Cc1onc(-c2ccccc2)c1C(=O)N[C@@H]1C(=O)N2[C@@H]1SC(C)(C)[C@@H]2C(=O)O` [Oxacillin, oxacillin]?
**A.** detection after incubation with oxacillin (MSSA; several MSSA strains): no detection; Oxacillin (RLU) 1 ug/mL (MSSA; [1]): 1459 RLU; Oxacillin (RLU) 2 ug/mL (MSSA; [1]): 697 RLU; Oxacillin (RLU) 1 ug/mL (MSSA; [2]): 268 RLU; Oxacillin (RLU) 2 ug/mL (MSSA; [2]): 219 RLU; Oxacillin (RLU) 1 ug/mL (MSSA; [3]): 228 RLU; Oxacillin (RLU) 2 ug/mL (MSSA; [3]): 198 RLU; Oxacillin (RLU) 1 ug/mL (MSSA; [4]): 245 RLU; Oxacillin (RLU) 2 ug/mL (MSSA; [4]): 221 RLU; detection after incubation with oxacillin (MRSA; several MRSA strains): no detection; Oxacillin (RLU) 1 ug/mL (MRSA; [5]): 426 RLU; Oxacillin (RLU) 2 ug/mL (MRSA; [5]): 353 RLU; Oxacillin (RLU) 1 ug/mL (MRSA; [6]): 4944 RLU; Oxacillin (RLU) 2 ug/mL (MRSA; [6]): 4965 RLU; Oxacillin (RLU) 1 ug/mL (MRSA; [7]): 348 RLU; Oxacillin (RLU) 2 ug/mL (MRSA; [7]): 281 RLU; Oxacillin (RLU) 1 ug/mL (MRSA; [8]): 553 RLU; Oxacillin (RLU) 2 ug/mL (MRSA; [8]): 212 RLU; Oxacillin (RLU) 1 ug/mL (MRSA; [9]): 467 RLU; Oxacillin (RLU) 2 ug/mL (MRSA; [9]): 268 RLU; Oxacillin (RLU) 1 ug/mL (MRSA; [10]): 23810 RLU; Oxacillin (RLU) 2 ug/mL (MRSA; [10]): 22560 RLU

**Q.** Which “cells resistant or sensitive” value (E. coli O157:H7) does the source give for `CC1(C)S[C@@H]2[C@H](NC(=O)[C@H](N)c3ccccc3)C(=O)N2[C@H]1C(=O)O` [ampicillin] here?
**A.** The value was “sensitive”.

**Q.** And the “signal reduction as compared to controls” value (E. coli O157:H7; 10 μg/mL)?
**A.** The value was “about 100 fold”.

**Q.** What about the “signal reduction as compared to controls” value (E. coli O157:H7; 25 μg/mL) of the same compound?
**A.** The value was roughly 1400 fold.

**Q.** And the “signal reduction as compared to controls” value (E. coli O157:H7; 50 μg/mL)?
**A.** The value was roughly 2200 fold.

**Q.** Which “cells resistant or sensitive” value (E. coli O157:H7) does the source give for `CN[C@H](CC(C)C)C(=O)N[C@H]1C(=O)N[C@@H](CC(N)=O)C(=O)N[C@H]2C(=O)N[C@H]3C(=O)N[C@H](C(=O)N[C@H](C(=O)O)c4cc(O)cc(O)c4-c4cc3ccc4O)[C@H](O)c3ccc(c(Cl)c3)Oc3cc2cc(c3O[C@@H]2O[C@H](CO)[C@@H](O)[C@H](O)[C@H]2O[C@H]2C[C@](C)(N)[C@H](O)[C@H](C)O2)Oc2ccc(cc2Cl)[C@H]1O` [vancomycin] here?
**A.** Its value is “resistant”.

**Q.** And the “signal change upon exposure” value (E. coli O157:H7; 10 μg/mL, 25 μg/mL, 50 μg/mL, or 100 μg/mL)?
**A.** The value was “signals increased”.
